Data taken from patent US20190255056A1, “A HCK INHIBITOR AND A BCL-2 INHIBITOR FOR TREATING ACUTE MYELOID LEUKEMIA” (RIKEN, priority 2016, published 2019).

Assays:
human FLT3−ITD+AML cells = experiment: In vivo treatment of AML-engrafted NSG recipients (PDX model); set-up: species or system NSG mice
Procedure: NSG newborns received 1.5Gy total body irradiation followed by intravenous injection of purified human cells. Donor cells were purified according to their cell surface phenotype using monoclonal antibodies against human CD34, CD38, CD90, CD45RA, CD3, CD19 and CD33. Engraftment levels of human cells in the NSG recipients were assessed by retro-orbital phlebotomy and flow cytometry.
(§1) In vivo treatment experiments were performed with AML-engrafted NSG recipients using RK-20449 (Ref. STM 2013) and ABT-199 (Souers A J et al., Nature Medicine 2013, Pan R et al., Cancer Discovery 2014). The recipients were administered RK-20449 intraperitoneally 30 mg/kg twice a day, ABT-199 orally 70 mg/kg once a day or both RK-20449 and ABT-199 at these dosing schedules. The mice were sacrificed when they became moribund or after 4˜6 weeks of treatment, and human AML chimerisms in BM, spleen and PB were determined using flow cytometry. In secondary transplantation, each mouse received 7-AAD(-) viable human CD45+cells from 2.5% of total BM that remained in AML-engrafted recipients at the time of sacrifice, to simulate relapse occurring from residual viable AML cells.
These studies examined whether inhibition of a mutated kinase alone eliminates AML in vivo using a NSG PDX model. Patient-derived cells with a FLT3−ITD mutation engraft in vivo and initiate AML, but the individual FLT3−ITD+cells harbor multiple other mutations in various combinations. These mutations may contribute to therapy responsiveness in cooperation with FLT3−ITD, and a PDX model that reflects mutational complexity of human AML cells is necessary to examine the contribution of multiple co-existing mutations. Therefore, the frequency of AML-associated somatic mutations was evaluated in the disclosed PDX model using newborn NSG xenotransplantation, and the same sets of mutations were present in patient-derived leukemia-initiating population and engrafted AML cells in recipients (see, FIG. 4). […] The extent that targeting FLT3 pathway alone can result in reduction of human AML cells harboring multiple mutations in vivo was examined as follows. RK-20449 is a pyrrolo-pyrimidine-derivative multi-kinase inhibitor of Src family kinase HCK and FLT3 that effectively target human AML cells. Therefore, RK-20449 was administered to 58 NSG mice engrafted with AML from 19 FLT3−ITD+AML patients and the results are shown in FIG. 8.

[1] = test system: residual viable human CD45+AML cells (leukemia-initiating capacity); experiment: Secondary (serial) transplantation of residual human AML cells after in vivo treatment; set-up: species or system NSG mice; conditions: 2.5% of residual viable human CD45+ cells transplanted per secondary recipient; single-agent groups
Procedure: as §1
Leukemia-initiating capacity remaining after treatment was compared by isolating residual viable human CD45+AML cells from each treated mouse and transplanting a pre-determined fraction into secondary NSG recipients.

## CN1CCN([C@H]2CC[C@H](n3cc(-c4ccc(Oc5ccccc5)cc4)c4c(N)ncnc43)CC2)CC1 [RK-20449, 7-((1R,4R)-4-(4-methylpiperazin-l-yl)cyclohexyl)-5-(4-phenoxyphenyl)-7H-pyrrolo[2,3-d]pyrimidin-4-amine]
Human FLT3−ITD+AML cells; RK-20449 alone 30 mg/kg i.p. twice a day, five patients with complete responses, every recipient treated
  residual BM human CD45+chimerism: < 5%
Human FLT3−ITD+AML cells; RK-20449 alone, 11 additional cases
  response in the spleen: complete responses in the spleen in a majority of recipients tested
Human FLT3−ITD+AML cells; all 19 cases tested
  response of FLT3−ITD+human AML cells to single agent in vivo: significant responses
Human FLT3−ITD+AML cells; flow cytometry and immunohistochemistry, complete-responder patients, all recipients treated
  remaining AML cells in BM, spleen and PB: less than 0.01%
Human FLT3−ITD+AML cells; in vivo kinase inhibition
  BCL-2 dependence for leukemia cell survival: enhanced
Human FLT3−ITD+AML cells; single agent RK-20449
  cases with residual AML cells in the BM of at least one treated mouse: 14 of 19
[1]
  AML initiation in secondary recipients from treated BM: every secondary recipient

## CC1(C)CCC(CN2CCN(c3ccc(C(=O)NS(=O)(=O)c4ccc(NCC5CCOCC5)c([N+](=O)[O-])c4)c(Oc4cnc5[nH]ccc5c4)c3)CC2)=C(c2ccc(Cl)cc2)C1 [ABT-199, reference compound]
Human FLT3−ITD+AML cells; ABT-199 orally 70 mg/kg once a day, majority of cases
  response to ABT-199 alone: limited responses
[1]
  AML initiation in secondary recipients from treated BM: every secondary recipient
